# Source: ChEMBL document CHEMBL4840301, “Homophymamide A, Heterodetic Cyclic Tetrapeptide from a Homophymia sp. Marine Sponge: A Cautionary Note on Configurational Assignment of Peptides That Contain a Ureido Linkage” (J Nat Prod, 2021)
# pIC50: −log10 of the molar value.
# Biological target: T1, Carboxypeptidase B (Sus scrofa, UniProt P09955)
# T1 sequence (P09955 whole entry): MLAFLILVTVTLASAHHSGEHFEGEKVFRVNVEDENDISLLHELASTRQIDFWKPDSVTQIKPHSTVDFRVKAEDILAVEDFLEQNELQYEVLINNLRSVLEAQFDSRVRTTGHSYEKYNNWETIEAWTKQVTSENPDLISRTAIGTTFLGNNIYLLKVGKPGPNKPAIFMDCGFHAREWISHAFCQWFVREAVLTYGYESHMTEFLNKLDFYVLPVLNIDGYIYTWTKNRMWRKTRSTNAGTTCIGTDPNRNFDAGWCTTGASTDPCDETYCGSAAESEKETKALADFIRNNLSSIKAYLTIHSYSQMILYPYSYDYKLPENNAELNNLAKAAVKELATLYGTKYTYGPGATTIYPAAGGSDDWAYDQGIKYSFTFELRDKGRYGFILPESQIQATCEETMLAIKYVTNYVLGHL
# Test: Inhibition of carboxypeptidase B in porcine pancreas using hippuryl-L-Arg as substrate preincubated with substrate for 2 mins followed by enzyme addition and measured after 5 mins by colorimetric method
# Format: tissue-based
compound,measurement,value
CC[C@H](C)[C@@H]1NC(=O)[C@H](CC(C)C)N(C)C(=O)[C@H](C)NC(=O)[C@H](NC(=O)N[C@@H](CCCNC(=N)N)C(=O)O)CCCCNC1=O,pIC50,6.23
